Earlier results, collected in patent publication US10512655B1, “Methods and compositions for the topical treatment of peripheral neuropathy” (Jeffrey S. Brooks, Inc., priority 2013, dated 2019).

Tests used:
[1] = tested on: patients with type 1 diabetes; conditions: oral, 300 mg/day over 24 months
[2] = tested on: patients suffering from DPN; conditions: topical, KY gel non-occlusive vehicle

In the case of `C/C(=C(\CCOP(=O)(O)O)SC(=O)c1ccccc1)N(C=O)Cc1cnc(C)nc1N` [benfotiamine, Benfotiamine], the “effects upon peripheral nerve function or soluble markers of inflammation” value [1] is listed as “no significant effects”.

For `CN1CC[C@]23c4c5ccc(O)c4O[C@H]2[C@@H](O)C=C[C@H]3[C@H]1C5` [morphine], the pain relief [2] is given as “no pain relief”.
